In assay [1] the target is Epidermal growth factor receptor (Homo sapiens, UniProt P00533, C797S/EX19DEL/T790M). The assay is described as follows: Inhibition of EGFR Del19/T790M/C797S mutant (unknown origin) phosphorylation.
The target in assay [2] is Epidermal growth factor receptor (Homo sapiens, UniProt P00533, C797S/L858R/T790M). The assay is described as follows: Inhibition of EGFR L858R/T790M/C797S mutant (unknown origin) phosphorylation.
In assay [3] the target is Epidermal growth factor receptor (Homo sapiens, UniProt P00533). In words: Inhibition of wild-type EGFR (unknown origin) phosphorylation.
The test system of assay [4] is BaF3. In words: Inhibition of cell proliferation of mouse BaF3 cells expressing EGFR Del19/T790M/C797S mutant (unknown origin). In kind it is functional.
Assay [5] deals with BaF3. The assay is described as follows: Inhibition of cell proliferation of mouse BaF3 cells expressing EGFR L858R/T790M/C797S mutant (unknown origin). In kind it is functional.
Assay [6] has as its system BaF3. In words: Inhibition of cell proliferation of mouse BaF3 cells expressing wild-type EGFR (unknown origin). In kind it is functional.

Epidermal growth factor receptor (Homo sapiens, UniProt P00533, C797S/L858R/T790M), sequence (P00533 25-1210 T790M/C797S/L858R limits assumed): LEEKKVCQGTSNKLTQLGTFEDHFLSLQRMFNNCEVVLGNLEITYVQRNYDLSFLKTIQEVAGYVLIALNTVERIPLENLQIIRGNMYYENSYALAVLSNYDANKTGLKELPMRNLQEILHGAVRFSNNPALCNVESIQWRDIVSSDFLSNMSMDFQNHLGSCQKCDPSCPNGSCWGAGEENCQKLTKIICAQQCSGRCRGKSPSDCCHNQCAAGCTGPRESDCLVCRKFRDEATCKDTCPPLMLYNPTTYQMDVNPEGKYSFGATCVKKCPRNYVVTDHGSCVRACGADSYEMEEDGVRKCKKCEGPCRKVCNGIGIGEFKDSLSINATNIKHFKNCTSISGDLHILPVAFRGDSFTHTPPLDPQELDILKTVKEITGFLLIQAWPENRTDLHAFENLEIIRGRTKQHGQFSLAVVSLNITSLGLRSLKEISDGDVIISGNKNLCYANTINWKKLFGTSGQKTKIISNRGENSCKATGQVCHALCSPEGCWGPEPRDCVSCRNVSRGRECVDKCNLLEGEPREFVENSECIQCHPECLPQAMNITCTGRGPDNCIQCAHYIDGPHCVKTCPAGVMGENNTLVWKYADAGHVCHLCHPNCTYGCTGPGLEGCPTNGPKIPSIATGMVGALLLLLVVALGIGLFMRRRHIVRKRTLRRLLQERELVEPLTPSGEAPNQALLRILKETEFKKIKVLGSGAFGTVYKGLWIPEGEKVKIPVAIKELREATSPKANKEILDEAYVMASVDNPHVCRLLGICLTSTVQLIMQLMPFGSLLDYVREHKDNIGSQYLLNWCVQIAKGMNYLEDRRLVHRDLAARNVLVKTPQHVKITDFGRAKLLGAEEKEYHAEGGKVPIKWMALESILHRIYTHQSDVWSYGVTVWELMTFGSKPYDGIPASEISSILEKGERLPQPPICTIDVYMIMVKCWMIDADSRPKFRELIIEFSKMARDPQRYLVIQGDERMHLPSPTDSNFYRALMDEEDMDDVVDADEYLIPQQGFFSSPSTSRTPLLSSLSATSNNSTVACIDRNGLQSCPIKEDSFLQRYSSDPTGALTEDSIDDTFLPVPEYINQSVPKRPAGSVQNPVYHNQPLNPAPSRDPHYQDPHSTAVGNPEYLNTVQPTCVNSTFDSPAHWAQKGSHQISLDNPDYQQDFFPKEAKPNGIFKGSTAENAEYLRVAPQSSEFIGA
Epidermal growth factor receptor (Homo sapiens, UniProt P00533), sequence (P00533 whole entry): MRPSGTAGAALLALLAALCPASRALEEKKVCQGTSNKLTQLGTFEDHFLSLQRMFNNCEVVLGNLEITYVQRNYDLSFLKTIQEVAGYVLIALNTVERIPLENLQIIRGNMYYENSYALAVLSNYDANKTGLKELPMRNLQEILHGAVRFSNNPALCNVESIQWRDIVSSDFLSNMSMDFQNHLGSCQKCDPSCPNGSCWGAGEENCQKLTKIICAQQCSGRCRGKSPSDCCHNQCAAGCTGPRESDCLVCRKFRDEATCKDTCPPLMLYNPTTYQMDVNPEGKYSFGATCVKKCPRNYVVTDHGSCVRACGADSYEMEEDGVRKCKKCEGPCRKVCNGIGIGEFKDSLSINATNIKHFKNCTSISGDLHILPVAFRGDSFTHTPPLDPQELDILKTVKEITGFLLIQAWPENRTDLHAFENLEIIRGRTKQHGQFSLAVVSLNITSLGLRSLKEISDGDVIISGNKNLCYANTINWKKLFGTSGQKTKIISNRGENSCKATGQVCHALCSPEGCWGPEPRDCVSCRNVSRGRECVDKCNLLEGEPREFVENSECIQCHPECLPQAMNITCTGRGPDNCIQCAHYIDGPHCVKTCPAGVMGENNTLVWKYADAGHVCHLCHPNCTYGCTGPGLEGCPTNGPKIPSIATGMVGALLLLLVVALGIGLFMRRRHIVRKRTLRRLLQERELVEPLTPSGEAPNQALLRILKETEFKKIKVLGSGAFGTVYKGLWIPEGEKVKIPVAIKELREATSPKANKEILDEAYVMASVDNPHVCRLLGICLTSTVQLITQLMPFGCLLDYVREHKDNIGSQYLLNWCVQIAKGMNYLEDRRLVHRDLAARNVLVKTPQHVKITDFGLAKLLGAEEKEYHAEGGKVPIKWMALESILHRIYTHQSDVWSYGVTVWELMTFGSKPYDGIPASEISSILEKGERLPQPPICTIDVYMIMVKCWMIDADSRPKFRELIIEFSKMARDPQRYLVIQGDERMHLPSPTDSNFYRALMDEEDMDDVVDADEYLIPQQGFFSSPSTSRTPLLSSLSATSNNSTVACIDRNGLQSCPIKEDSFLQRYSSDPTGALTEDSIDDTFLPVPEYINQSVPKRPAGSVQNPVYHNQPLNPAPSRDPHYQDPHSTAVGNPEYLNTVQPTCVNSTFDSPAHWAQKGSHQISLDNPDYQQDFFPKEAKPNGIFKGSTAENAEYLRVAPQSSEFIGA
Epidermal growth factor receptor (Homo sapiens, UniProt P00533, C797S/EX19DEL/T790M), sequence (P00533 whole entry, looked up, stated change not applied): as the sequence (P00533 whole entry) above

Take `CC[C@H](C)Nc1cc(Nc2ccnc(-c3cnn(S(=O)(=O)C4CC4)c3)n2)ncc1C(=O)N(C)C`: the IC50 (in general, the midpoint of a concentration-inhibition curve) in assay [1] is 450 nM; in assay [2] it was 300 nM; in assay [3] it was above 5000 nM.
As for `CC[C@H](C)Nc1cc(Nc2ccnc(-c3cnn(S(=O)(=O)C4CC4)c3)n2)ncc1C(=O)NCCN(C)C`, the IC50 in assay [1] is 11 nM; in assay [2], 10 nM; in assay [3], 265 nM. The GI50 (commonly the concentration that inhibits growth by half) in assay [4] (Mus musculus, BaF3) was 193 nM; in assay [5] (Mus musculus, BaF3) it was 446 nM; in assay [6] (Mus musculus, BaF3), 1220 nM.
Take `CC(C)Oc1cc(Nc2ccnc(-c3cnn(S(=O)(=O)C4CC4)c3)n2)ncc1C(=O)N1CC(C(C)(C)O)C1`: the IC50 in assay [1], in assay [2] and in assay [3] was above 5000 nM each time.
Regarding `CC(C)Nc1cc(Nc2ccnc(-c3cnn(S(=O)(=O)C4CC4)c3)n2)ncc1C(=O)N1CC(C(C)(C)O)C1`, the IC50 in assay [1] stood at 72 nM; in assay [2] it was 51 nM; in assay [3] it was 552 nM.
For `CC[C@H](C)Nc1cc(Nc2ccnc(-c3cnn(S(=O)(=O)C4CC4)c3)n2)ncc1C(=O)NCCC(F)F`, the concentration for 50% growth inhibition (GI50) in assay [4] (Mus musculus, BaF3) amounted to 35 nM; in assay [5] (Mus musculus, BaF3) it was 81 nM; in assay [6] (Mus musculus, BaF3), 1080 nM.
In the case of `CC[C@H](C)Nc1cc(Nc2ccnc(-c3cnn(S(=O)(=O)C4CC4)c3)n2)ncc1C(=O)NCCCF`, the values for the half-maximal inhibitory concentration (IC50) in assay [1], in assay [2] and in assay [3] were 4.5 nM, 3.7 nM and 55 nM, respectively. Further, the GI50 is 56 nM in assay [4] (Mus musculus, BaF3); 129 nM in assay [5] (Mus musculus, BaF3); 1050 nM in assay [6] (Mus musculus, BaF3).
Take `CC[C@H](C)Nc1cc(Nc2ccnc(-c3cnn(S(=O)(=O)C4CC4)c3)n2)ncc1C(=O)NC`: the IC50 in assay [1] is 3.6 nM; in assay [2] it was 3.6 nM; in assay [3] it was 45 nM. The GI50 in assay [4] (Mus musculus, BaF3) was 68 nM; in assay [5] (Mus musculus, BaF3) it was 163 nM; in assay [6] (Mus musculus, BaF3) it was 927 nM.
For the compound `CCC(=O)c1cnc(Nc2ccnc(-c3cnn(S(=O)(=O)C4CC4)c3)n2)cc1N[C@@H](C)CC`, the IC50 in assay [1] was found to be 13 nM; in assay [2], 11 nM; in assay [3] it was 212 nM.
Consider `CCNC(=O)c1cnc(Nc2ccnc(-c3cnn(S(=O)(=O)C4CC4)c3)n2)cc1N[C@@H](C)CC`, for which the IC50 in assay [1] is 6 nM; in assay [2] it was 5.6 nM; in assay [3], 77 nM. Moreover, the GI50 in assay [4] (Mus musculus, BaF3) amounted to 72 nM; in assay [5] (Mus musculus, BaF3), 191 nM; in assay [6] (Mus musculus, BaF3), 1270 nM.
As for `CCNS(=O)(=O)c1cnc(Nc2ccnc(-c3cnn(S(=O)(=O)C4CC4)c3)n2)cc1N[C@@H](C)CC`, the IC50 in assay [1] is above 5000 nM; in assay [2] it was 4880 nM; in assay [3], above 5000 nM.
`CC[C@H](C)Nc1cc(Nc2ccnc(-c3cnn(S(=O)(=O)C4CC4)c3)n2)ncc1C(=O)N1CC(C(C)(C)O)C1`: the IC50 in assay [1] amounted to 30 nM; in assay [2] it was 22 nM; in assay [3] it was 235 nM.
Consider `CC[C@H](C)Nc1cc(Nc2ccnc(-c3cnn(S(=O)(=O)C4CC4)c3)n2)ncc1C(=O)NC1CCOCC1`, for which the 50% growth inhibitory concentration (GI50) in assay [4] (Mus musculus, BaF3) is 156 nM; in assay [5] (Mus musculus, BaF3), 452 nM; in assay [6] (Mus musculus, BaF3) it was 1660 nM.
Regarding `C=CC(=O)Nc1cc(Nc2nccc(-c3cn(C)c4ccccc34)n2)c(OC)cc1N(C)CCN(C)C` [OSIMERTINIB], the GI50 in assay [4] turned out to be 2060 nM; in assay [5] it was 1290 nM; in assay [6] it was 107 nM.

These data come from ChEMBL document CHEMBL5356962, “Synthesis, activity, and their relationships of 2,4-diaminonicotinamide derivatives as EGFR inhibitors targeting C797S mutation” (Bioorg Med Chem Lett, 2024).
